Our source for the IC50 values is ChEMBL document CHEMBL1130535, “Synthesis of triphosphonate analogues of farnesyl pyrophosphate. Inhibitors of squalene synthase and protein:farnesyl transferase” (Bioorg Med Chem Lett, 1997).

In assay [1] the target is Protein farnesyltransferase (Homo sapiens, UniProt P49354+P49356). Put plainly: Inhibition of Farnesyl Transferase. In kind it is protein-complex assay.
The target of the next assay is T1, Squalene synthase (Homo sapiens, UniProt P37268).
T1 sequence (P37268 whole entry): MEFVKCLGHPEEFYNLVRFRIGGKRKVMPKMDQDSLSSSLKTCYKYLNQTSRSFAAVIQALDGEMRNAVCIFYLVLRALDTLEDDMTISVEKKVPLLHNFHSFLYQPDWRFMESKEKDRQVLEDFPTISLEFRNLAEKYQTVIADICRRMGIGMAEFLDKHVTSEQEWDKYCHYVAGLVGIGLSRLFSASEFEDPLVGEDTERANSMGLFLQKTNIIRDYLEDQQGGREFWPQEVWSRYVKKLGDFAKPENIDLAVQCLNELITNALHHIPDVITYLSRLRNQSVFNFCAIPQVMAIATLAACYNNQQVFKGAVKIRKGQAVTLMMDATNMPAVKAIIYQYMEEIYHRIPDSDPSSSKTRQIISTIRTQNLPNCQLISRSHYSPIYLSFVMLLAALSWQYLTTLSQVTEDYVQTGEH
Description: Inhibition of Squalene Synthase.

In general, IC50 refers to the point on the concentration scale where inhibition reaches its midpoint.

Take `CC(C)=CCC/C(C)=C/CC/C(C)=C/CC(C/C=C(\C)CC/C=C(\C)CCC=C(C)C)(P(=O)(O)O)P(=O)(O)CP(=O)(O)O` (stereo not given): the IC50 was determined as 3.99 µM in assay [1] and 23.3 µM against Squalene synthase.
On to `CC(C)=CCC/C(C)=C/CC/C(C)=C/CC(P(=O)(O)O)P(=O)(O)O`, for which the IC50 in assay [1] was found to be 13.5 µM; against Squalene synthase it was 0.018 µM.
As to `CC(C)=CCC/C(C)=C/CC/C(C)=C/CC1P(=O)(O)CP(=O)(O)OP1(=O)O` (stereo not given), the IC50 in assay [1] was found to be 34.2 µM; on Squalene synthase it was 46.4 µM.
For the molecule `CC(C)=CCC/C(C)=C/CC/C(C)=C/CC(P(=O)(O)O)P(=O)(O)CP(=O)(O)O` (stereo not given), the IC50 in assay [1] stood at 1.81 µM; on Squalene synthase it was 1.1 µM.
For `CC(C)=CCC/C(C)=C/CC/C(C)=C/CC1(C/C=C(\C)CC/C=C(\C)CCC=C(C)C)P(=O)(O)CP(=O)(O)OP1(=O)O` (stereo not given) the same measures were 56.2 µM and more than 50 µM.
